In US5300506A, “Indolylalkyl derivatives of pyrimidinylpiperazine for treating vascular headache” (Bristol-Myers Squibb Company, priority 1992, dated 1994):
Counter-ions that a name gives are not always drawn.

Tests used:
5-HT1D = molecular target: T1, 5-HT1D (Bos taurus, UniProt F1MGM3); assay: 5-HT1D binding site affinity (tritiated serotonin; methodology of Heuring and Peroutka with minor modifications); settings: in vitro
T1 construct: from tissue
Protocol: Determination of 5-HT1D binding properties was accomplished employing methodology such as that described by Heuring and Peroutka, J. Neurosci., 7(3), 1987, 894-903; with only minor modifications. In vitro IC50 (nM) test values were determined for the compounds of this invention employing tritiated serotonin.

[1] = use in headache treatment; cited from earlier work
migraine sufferers = settings: migraine patients; cited from earlier work
plasma serotonin = settings: intramuscular injection; cited from earlier work

T1 sequence (F1MGM3 1-403): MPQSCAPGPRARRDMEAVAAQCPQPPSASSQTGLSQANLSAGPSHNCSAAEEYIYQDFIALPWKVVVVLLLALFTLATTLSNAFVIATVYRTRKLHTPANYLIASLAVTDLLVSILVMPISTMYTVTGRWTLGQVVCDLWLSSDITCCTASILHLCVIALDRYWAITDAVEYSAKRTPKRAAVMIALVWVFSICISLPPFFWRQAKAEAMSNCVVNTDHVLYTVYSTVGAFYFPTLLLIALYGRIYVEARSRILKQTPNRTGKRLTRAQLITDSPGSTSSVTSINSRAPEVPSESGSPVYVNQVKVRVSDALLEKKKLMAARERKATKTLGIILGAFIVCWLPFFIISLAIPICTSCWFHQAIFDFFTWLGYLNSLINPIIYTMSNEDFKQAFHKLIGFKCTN

COc1ccc2[nH]cc(CCCN3CCN(c4ncncc4OC)CC3)c2c1 [Example 73]
IC50 (5-HT1D): 1.1 nM

COc1cncnc1N1CCN(CCCc2c[nH]c3ccc(F)cc23)CC1 [Example 60]
IC50 (5-HT1D): 3 nM

COc1cncnc1N1CCN(CCCc2c[nH]c3cc(F)c(F)cc23)CC1 [Example 74]
IC50 (5-HT1D): 29 nM

NCCc1c[nH]c2ccc(O)cc12 [serotonin]
side-effects / dependence (in words) [1]: restlessness, nausea, faintness, hyperpnea, facial flushing and parasthesias | effect on migraine headache (in words) (migraine sufferers): effective in treating migraine attacks

COc1cncnc1N1CCN(CCCc2c[nH]c3ccc(N(C)S(C)(=O)=O)cc23)CC1 [Example 65]
IC50 (5-HT1D): 4.9 nM

CCS(=O)(=O)Nc1ccc2[nH]cc(CCCN3CCN(c4ncncc4OC)CC3)c2c1 [Example 67]
IC50 (5-HT1D): 13.7 nM

CCOc1cncnc1N1CCN(CCCc2c[nH]c3ccccc23)CC1 [Example 52, 4-(5-Ethoxy-4-pyrimidinyl)-1-[3-(1H-indol-3-yl)propyl]piperazine hydrochloride hydrate]
IC50 (5-HT1D): 2 nM

CC[C@@H](CO)NC(=O)[C@@H]1C=C2c3cccc4c3c(cn4C)C[C@H]2N(C)C1 [methysergide]
side-effects / dependence (in words) [1]: severe use-limiting side-effects with long term usage

COc1cncnc1N1CCN(CCCc2c[nH]c3c(F)cc(F)cc23)CC1 [Example 76]
IC50 (5-HT1D): 8.1 nM

COc1cncnc1N1CCN(CCCc2c[nH]c3ccccc23)CC1 [Example 61]
IC50 (5-HT1D): 2.9 nM

COc1cncnc1N1CCN(CCCc2c[nH]c3ccc(OCc4ccccc4)cc23)CC1 [Example 72]
IC50 (5-HT1D): 14.3 nM

COc1cncnc1N1CCN(CCCc2c[nH]c3c(F)ccc(F)c23)CC1 [Example 75]
IC50 (5-HT1D): 5.1 nM

CCS(=O)(=O)N(C)c1ccc2[nH]cc(CCCN3CCN(c4ncncc4OC)C(C)C3)c2c1 (stereo not drawn) [Example 69]
IC50 (5-HT1D): 19.1 nM

CCOc1ccc2[nH]cc(CCCN3CCN(c4ncncc4OC)CC3)c2c1 [Example 71]
IC50 (5-HT1D): 2.2 nM

NCCc1c[nH]c2ccc(O)cc12 [serotonin creatinine sulfate]
effect on migraine headache (in words) (migraine sufferers): induced headache can be alleviated

CN1C[C@H](C(=O)N[C@]2(C)O[C@@]3(O)[C@@H]4CCCN4C(=O)[C@H](Cc4ccccc4)N3C2=O)C=C2c3cccc4[nH]cc(c34)C[C@H]21 [ergotamine]
side-effects / dependence (in words) [1]: cause dependence with extended use

COc1cncnc1N1CCN(C(C)CCc2c[nH]c3ccccc23)CC1 (stereo not drawn) [Example 53]
IC50 (5-HT1D): 5 nM

COc1cncnc1N1CCN(CCCc2c[nH]c3ccc(NS(C)(=O)=O)cc23)CC1 [Example 63]
IC50 (5-HT1D): 5.2 nM

COC(=O)[C@H]1[C@H]2C[C@@H]3c4[nH]c5cc(OC)ccc5c4CCN3C[C@H]2C[C@@H](OC(=O)c2cc(OC)c(OC)c(OC)c2)[C@@H]1OC [reserpine]
effect on migraine headache (in words) (migraine sufferers): induces a typical migraine-type headache | effect on plasma serotonin (in words) (plasma serotonin): lowers plasma serotonin

CCS(=O)(=O)N(C)c1ccc2[nH]cc(CCCN3CCN(c4ncncc4OC)CC3)c2c1 [Example 68]
IC50 (5-HT1D): 12.9 nM

COc1cncnc1N1CCN(CCCc2c[nH]c3ccccc23)CC1C (stereo not drawn) [Example 62]
IC50 (5-HT1D): 4.2 nM

COc1cncnc1N1CCN(CCCc2c[nH]c3ccc(O)cc23)CC1 [Example 55, 1-[3-(5-Hydroxy-1H-indol-3-yl)propyl]-4-(5-methoxy-4-pyrimidinyl)piperazine]
IC50 (5-HT1D): 0.8 nM

COc1cncnc1N1CCN(CCCc2c[nH]c3ccc(N(C)S(C)(=O)=O)cc23)CC1C (stereo not drawn) [Example 66]
IC50 (5-HT1D): 12 nM

CCC(CCc1c[nH]c2ccccc12)N1CCN(c2ncncc2OC)CC1 (stereo not drawn) [Example 54, 3-[3-[4-(5-Methoxy-4-pyrimidinyl)-1-piperazinyl]pentyl]indole]
IC50 (5-HT1D): 20.5 nM

CCS(=O)(=O)Nc1ccc2[nH]cc(CCCN3CCN(c4ncncc4OC)C(C)C3)c2c1 (stereo not drawn) [Example 70]
IC50 (5-HT1D): 17.1 nM
